# Measured values from US20150004636A1, “NEURONAL BIOSENSOR FOR DETECTION OF TOXINS” (priority 2011, published 2015).
# Like-named read-outs stand apart in the source and are kept apart here.
# Key:
# Assay type in all cases: cell-based, chick
# [1] = test system: DRG neurons
# Protocol: For microscopy experiments, holes were drilled in the bottom of 35 mm tissue culture dishes with a 7/32″ drill bit and drill press. Etching was performed on 12 mm round glass coverslips that were submerged in 300 ml of boiling 18 MΩ H2O containing 7.5 g Alconox detergent for 30 minutes. The coverslips were then rinsed with 18MΩ H2O and dried in a 150 mm Petri dish in a laminar flow hood. A section of Tygon tubing (0.5 inch long, 0.5 inch inner diameter, and 0.75 inch outer diameter) was used to apply Dow Corning 732 multi-purpose sealant to the bottom of the tissue culture dishes just around the hole that was drilled previously. Forceps were used to press one round glass coverslip to the bottom of each tissue culture dish until a continuous seal was formed around the hole. The tissue culture dishes were laid in a fume hood to dry. Exposure to ultraviolet light for at least an hour or treatment with ethanol for approximately 30 seconds was used to sterilize the dishes. Type VII collagen, to promote cell adhesion to the glass coverslip, was added to each dish for coating and allowed to air dry in the laminar flow hood to maintain sterility. Once the dishes were dry, the lids were placed back on the dishes and the edges of the Petri dishes were then wrapped in Parafilm and stored in a 4° C. refrigerator before use.
# Focusing on the FM® dye, the dye was thawed at room temperature and vortexed. A 30 μM FM® dye solution was made with 1×HBSS. The solution was heated to 37° C. and vortexed just before each cell staining experiment. The cells were exposed to the FM® dye solution for 5-10 min before imaging.
# The media was removed from the 35 mm tissue culture dish using a micropipette. The surface was then rinsed once with 1 ml HBSS. […]
# DRG neurons stained with FM® 4-64 were imaged before exposure to 100 μM ionomycin. […] Over the 10 min of imaging, the samples were moving out of focus and the focus was readjusted intermittently for more consistent images. […]
# [2] = test system: DRG neurons; remark: listed apart in the source
# [3] = test system: dorsal root ganglia (DRG) neurons
# Protocol: The eggs were incubated for 10 days before dissection in a dark egg incubator with motion at a dry temperature of 86-100° F. and wet temperature of 84-86° F. From the ventral side, the spines of the embryos were exposed, the kidneys were removed one at a time under higher dissecting power carefully so as not to remove the nerve chains situated just below the kidney along the ventral side of the spinal cord. The DRGs were each dissected from the area between the bottom of the ribs and the posterior end of the embryo, placed in a tissue culture dish containing F12 media. DRGs from 12 embryos were transferred with a fire-polished Louis Pasteur pipette to a sterile 15 ml tube. After the DRGs settled to the bottom of the tube, a pipette was used to carefully remove the F12 media, avoiding removal of any DRGs. Ten mLs of 5% trypsin were added to the tube with DRGs, mixed, and incubated for 30 minutes in a 37° C. water bath. Every 10 minutes of incubation the tube was removed from the water bath and tapped to mix the DRGs and allow the trypsin to digest connective tissue to separate the neurons. After incubation, trypsin was removed using a pipette. The cells were rinsed with 2 ml of Neurobasal media 2-3 times by adding media, allowing the DRGs to settle to the bottom of the tube before removing the media, and adding another 2 ml of media. After the final rinse, the volume was brought up to 1 ml and the dissociated neurons were triturated with a medium-sized, then a small-sized, fire-polished Louis Pasteur pipette until the cell solution appeared cloudy and no individual DRGs were present in the media. A small amount of the solution was transferred to a hemocytometer and the single cells were counted. The cell solution was diluted so that 10-15×10^4 cells were added to an Alconox® treated, 0.1 mg/ml collagen coated, 25 mm diameter round glass coverslip in a 35 mm dish with 2 ml of Neurobasal media. The DRGs were incubated in 5% CO2 at 37° C. for 2-3 days before experimentation. Approximately 1 mL of media was replaced with new media every other day until experiments began.
# Experiments began 2-3 days after neurons were plated. A dish of neurons was washed with 1×HBSS then 1×HBSS+1 mg/ml bovine serum albumin (BSA) before the cells were bathed in 4 μM Fura-2AM in 1×HBSS+BSA for incubation for 45 min at 37° C. in 5% CO2. The cells were washed 4× with 1×HBSS and incubated for another 20-60 min in 1×HBSS. A coverslip containing the neurons was removed after the final wash and placed in an apparatus for calcium imaging.
# All toxins including nicotine, boric acid, ionomycin, glutamate, and glycine were prepared in 1×HBSS according to their final concentrations (Table 3).
# The coverslip containing the neurons was placed in a perfusion apparatus onto an Olympus IX70 microscope equipped with a 20× fluorescence objective, a Mercury lamp and filter sets that optimized the Fura-2 excitation ([…]) and emission wavelengths (510 nm). The cells were bathed continuously by perfusion of solutions at ˜4.7 mL/min. The cells were bathed with 1×HBSS during software setup and for resting Ca^2+ measurements before exposure to stimulating or toxic solutions. InCyt Im2™ software was used to measure the emission intensities and convert to Ca^2+ concentrations. Only designated areas of each neuron soma were chosen for measurements. Calibration curves were generated for conversion of light intensity emitted per excitation wavelength using standard Ca^2+ solutions in the free acid form of Fura-2 to convert emitted light intensity to Ca^2+ concentration. Each experiment began with 3 min wash with HBSS to establish resting intracellular Ca^2+ measurements. Depending on the toxin used, the neurons were then exposed to a flow of toxic/stimulating solution for 5-10 min. Each experiment ended with a 1 min. wash of HBSS to determine reversal or change of the stimulating/toxic solution. […]
# [4] = test system: DRG neurons; test: Fluorescence spectroscopy of FM 4-64 labeled DRG neurons
# Protocol: For spectroscopy experiments, DRG neurons were grown on 11×22 mm plastic coverslips that were treated with Alconox and coated with Type VII rat tail collagen, using the same methods that were mentioned previously. Cells were plated with ˜15×10^4 cells in each 35 mm tissue culture dish containing one plastic coverslip. The cells were incubated in 5% CO2 at 37° C. for 2 days before experiments began.
# Before scanning the cell samples, the coverslip was mounted into a coverglass holder and was held inside a cuvette at a 45° angle from the light source and the photo detector. The coverglass holder was placed in a cuvette containing 1×HBSS to rinse the media from the cells prior to the experiments. For the spectroscopy experiments, the coverglass holder was placed in the cuvette that was filled with either 1×HBSS or stimulating solutions. The orientation of the coverglass in the cuvette was situated so that the cell surface was facing the light source and photodetector, both at 45° angles. For experiments using FM® 4-64, scan were conducted using a HORIBA Jobin Yvon FluoroLog®-3 spectrofluorometer with an excitation wavelength of 558 nm and an emission range was detected from 566 to 750 nm. The slit width for excitation and emission was 3 nm and data was collected every 0.2 sec, once for each wavelength. Fluorescence intensity was detected in counts per second (cps). The data was transferred into MS Excel and analyzed using Matlab.
# In Matlab, the maximum intensity of each scan was found for the emission wavelength range of interest and the ratio of the maximum emission intensities was taken between non-labeled, non-stimulated cells and FM®-labeled cells before and after stimulation. This ratio was used to determine the difference in fluorescence, and therefore the amount of stained membranes present in the sample before and after stimulation with ionomycin.
# To determine whether a change in fluorescence of FM®-labeled neurons could be measured, the cells were stained and stimulated using the same methods mentioned above. Four emission scans were performed: a control scan of the non-labeled neurons in HBSS, a scan of the FM®-labeled neurons in HBSS, a scan of the FM® labeled neurons in ionomycin 5 min after initial stimulation, and a scan of the post stimulated, FM®-labeled neurons in 1×HBSS wash. The cells were rinsed with warm 1×HBSS before each scan, and the cells were stimulated for a total of 10 min before rinsed with 1×HBSS for the fourth scan. The ratio of fluorescence intensities of non-labeled neurons to FM®-labeled neurons, FM®-labeled ionomycin-stimulated neurons, and FM®-labeled ionomycin-stimulated rinsed neurons in Table 5.
# [5] = 10 min, 50 mM boric acid, 500 μM glutamate or 100 μM nicotine
# [6] = FM-labeled neurons after 10 min ionomycin stimulation, rinsed in 1×HBSS
# [7] = FM-labeled neurons, 5 min in ionomycin
smiles,measurement,setting,value
CCN(CC)c1ccc(/C=C/C=C/C=C/c2cc[n+](CCC[N+](CC)(CC)CC)cc2)cc1.[Br-].[Br-] [FM® 4-64],staining of DRG neuron membranes,[1]; 30 μM FM 4-64 in 1×HBSS,complete staining of the cell membranes around the soma and axons
"[Cl-].[K+] [KCl, potassium chloride]",migration of FM 4-64 dye in stained neurons,"[2]; 50 mM KCl, 10 min after addition",some migration of FM® dye throughout the DRG neurons
same,cell morphology in phase images during stimulation,"[2]; 50 mM KCl, 10 min of stimulation",some swelling in small parts of axons
same,mean intracellular Ca2+ concentration during stimulation,"[3]; 50 mM KCl, n=104",511 nM
OB(O)O [boric acid],axon morphology after stimulation,[2],swollen axons
same,differences in membrane structure before vs after treatment,[2],very little differences to no differences
same,migration of FM 4-64 dye in stained neurons,[2],no migration of FM® 4-64 throughout the cells
same,change of intracellular Ca2+ compared to resting,[3],"slight, but significant, decrease"
same,mean intracellular Ca2+ concentration during stimulation,[3],58 nM
N[C@@H](CCC(=O)O)C(=O)O [glutamate],axon morphology after stimulation,[2]; [5],swollen axons
same,migration of FM 4-64 dye in stained neurons,[2]; [5],no migration of FM® 4-64 throughout the cells
same,percent of cells that responded with an increase of intracellular Ca2+,[3]; 100 μM glutamate,21%
same,percent of cells without obvious increase of intracellular Ca2+ (non-responding),[3]; 100 μM glutamate,79%
same,"average intracellular Ca2+ concentration, responding cells","[3]; 100 μM glutamate, n=27, resting 68.7 nM",301 nM
same,"average intracellular Ca2+ concentration, non-responding cells","[3]; 100 μM glutamate, n=100, resting 67 nM",71 nM
same,percent of cells that responded with an increase of intracellular Ca2+,[3]; 500 μM glutamate,34%
same,percent of cells without obvious increase of intracellular Ca2+ (non-responding),[3]; 500 μM glutamate,66%
same,"average intracellular Ca2+ concentration, responding cells","[3]; 500 μM glutamate, n=75, resting 82",352 nM
same,"average intracellular Ca2+ concentration, non-responding cells","[3]; 500 μM glutamate, n=146, resting 84 nM",88 nM
same,percent of cells that responded with an increase of intracellular Ca2+,[3]; 1 mM glutamate,15%
same,percent of cells without obvious increase of intracellular Ca2+ (non-responding),[3]; 1 mM glutamate,85%
same,"average intracellular Ca2+ concentration, non-responding cells","[3]; 1 mM glutamate, n=38, resting 79 nM",87 nM
C[C@H](CCC(=O)O)C[C@H](C)C[C@H](C)C(=O)/C=C(\O)[C@H](C)C[C@H](C)C/C=C/[C@@H](C)[C@@H](O)[C@@H](C)[C@@H](O)C[C@@H]1CC[C@@](C)([C@H]2CC[C@@](C)([C@@H](C)O)O2)O1 [ionomycin],Fluorescence Intensity at 667 nm,[4]; [6],2238 cps
same,Fluorescence Intensity at Peak Emission Wavelength,[4]; [6],2362 cps
same,Peak Emission Wavelength,[4]; [6],676 nm
same,Fluorescence Intensity at 667 nm,[4]; [7],3303 cps
same,Fluorescence Intensity at Peak Emission Wavelength,[4]; [7],3719 cps
same,Peak Emission Wavelength,[4]; [7],684 nm
same,Ratio of Fluorescence Intensities at 667 nm,"[4]; FM-labeled neurons, 5 min in ionomycin vs non-labeled neurons",2.05
same,Ratio of Fluorescence Intensities at 667 nm,"[4]; after 10 min ionomycin stimulation, rinsed in 1×HBSS vs non-labeled neurons",1.39
same,mean intracellular Ca2+ concentration during stimulation,"[3]; ~100 μM ionomycin, highest time points averaged, n=228",988 nM
same,change of intracellular Ca2+ compared to resting,"[3]; ~100 μM ionomycin, positive control",large and irreversible
same,cell morphology in phase images during stimulation,"[1]; 100 μM ionomycin, up to 10 min",shrinkage of the cell soma
same,migration of FM 4-64 dye in stained neurons,"[1]; 100 μM ionomycin, within the first 25 sec of stimulation",migrated from the membranes of the axons into the soma
CN1CCCC1c1cccnc1 (stereo not shown) [nicotine],axon morphology after stimulation,[2],swollen axons
same,migration of FM 4-64 dye in stained neurons,[2],no migration of FM® 4-64 throughout the cells
same,change of intracellular Ca2+ compared to resting,[3],only a few cells experiencing an increase in intracellular Ca^2+
